Laboratory results from US20210255193A1, “LYSINE REACTIVE PROBES AND USES THEREOF” (The Scripps Research Institute, priority 2017, published 2021).

Legend:
Test in all cases: competitive isoTOP-ABPP
Type in all cases: binding
Settings in all cases: 50 uM, 231 sol, in vitro
[1] = molecular target: T1, TSTA3 GDP-L-fucose synthase (Homo sapiens, UniProt Q13630)
T1 construct: isoTOP-ABPP experiments performed in cell lysates (in vitro); endogenous in cells; host or cells: soluble proteome of human cancer cell lines (MDA-MB-231, Ramos, Jurkat)
T1 sequence (Q13630 whole entry): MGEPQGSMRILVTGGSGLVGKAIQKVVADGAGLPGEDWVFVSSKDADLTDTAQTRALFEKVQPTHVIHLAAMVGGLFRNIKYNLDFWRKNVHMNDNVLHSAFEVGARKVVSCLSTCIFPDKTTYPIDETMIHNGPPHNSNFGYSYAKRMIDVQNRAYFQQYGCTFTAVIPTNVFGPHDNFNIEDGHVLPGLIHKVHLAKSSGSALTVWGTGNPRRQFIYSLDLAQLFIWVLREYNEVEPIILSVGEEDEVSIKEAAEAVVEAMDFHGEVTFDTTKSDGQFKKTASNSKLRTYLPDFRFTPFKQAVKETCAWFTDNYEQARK
Procedure, shortened: (§1)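 Competition format: fragment (50 μM activated ester, 100 μM guanidinylating agent) versus vehicle in lysate, then lysine probe STP-alkyne at 0.1 mM for 1 h. Quantitation by light/heavy TEV-tag MS1 peak areas, reported as R.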

[2] = molecular target: T2, ARL6IP1 ADP-ribosylation factor-like protein 6-interacting (Homo sapiens, UniProt Q15041)
T2 construct: isoTOP-ABPP experiments performed in cell lysates (in vitro); endogenous in cells; host or cells: soluble proteome of human cancer cell lines (MDA-MB-231; Ramos and Jurkat also prepared)
T2 sequence (Q15041 whole entry): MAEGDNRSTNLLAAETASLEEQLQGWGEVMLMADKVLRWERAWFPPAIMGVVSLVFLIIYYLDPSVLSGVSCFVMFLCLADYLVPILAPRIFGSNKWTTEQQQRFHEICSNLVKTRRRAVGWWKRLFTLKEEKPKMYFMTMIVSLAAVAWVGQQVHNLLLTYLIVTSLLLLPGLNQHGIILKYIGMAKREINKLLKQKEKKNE
Procedure, shortened: as §1

[3] = molecular target: T3, KIAA1033 WASH complex subunit 7 (Homo sapiens, UniProt Q2M389)
T3 construct: isoTOP-ABPP experiments performed in cell lysates (in vitro); endogenous in cells; host or cells: soluble proteome of human cancer cell lines (MDA-MB-231; Ramos and Jurkat also prepared)
T3 sequence (Q2M389 1-1173): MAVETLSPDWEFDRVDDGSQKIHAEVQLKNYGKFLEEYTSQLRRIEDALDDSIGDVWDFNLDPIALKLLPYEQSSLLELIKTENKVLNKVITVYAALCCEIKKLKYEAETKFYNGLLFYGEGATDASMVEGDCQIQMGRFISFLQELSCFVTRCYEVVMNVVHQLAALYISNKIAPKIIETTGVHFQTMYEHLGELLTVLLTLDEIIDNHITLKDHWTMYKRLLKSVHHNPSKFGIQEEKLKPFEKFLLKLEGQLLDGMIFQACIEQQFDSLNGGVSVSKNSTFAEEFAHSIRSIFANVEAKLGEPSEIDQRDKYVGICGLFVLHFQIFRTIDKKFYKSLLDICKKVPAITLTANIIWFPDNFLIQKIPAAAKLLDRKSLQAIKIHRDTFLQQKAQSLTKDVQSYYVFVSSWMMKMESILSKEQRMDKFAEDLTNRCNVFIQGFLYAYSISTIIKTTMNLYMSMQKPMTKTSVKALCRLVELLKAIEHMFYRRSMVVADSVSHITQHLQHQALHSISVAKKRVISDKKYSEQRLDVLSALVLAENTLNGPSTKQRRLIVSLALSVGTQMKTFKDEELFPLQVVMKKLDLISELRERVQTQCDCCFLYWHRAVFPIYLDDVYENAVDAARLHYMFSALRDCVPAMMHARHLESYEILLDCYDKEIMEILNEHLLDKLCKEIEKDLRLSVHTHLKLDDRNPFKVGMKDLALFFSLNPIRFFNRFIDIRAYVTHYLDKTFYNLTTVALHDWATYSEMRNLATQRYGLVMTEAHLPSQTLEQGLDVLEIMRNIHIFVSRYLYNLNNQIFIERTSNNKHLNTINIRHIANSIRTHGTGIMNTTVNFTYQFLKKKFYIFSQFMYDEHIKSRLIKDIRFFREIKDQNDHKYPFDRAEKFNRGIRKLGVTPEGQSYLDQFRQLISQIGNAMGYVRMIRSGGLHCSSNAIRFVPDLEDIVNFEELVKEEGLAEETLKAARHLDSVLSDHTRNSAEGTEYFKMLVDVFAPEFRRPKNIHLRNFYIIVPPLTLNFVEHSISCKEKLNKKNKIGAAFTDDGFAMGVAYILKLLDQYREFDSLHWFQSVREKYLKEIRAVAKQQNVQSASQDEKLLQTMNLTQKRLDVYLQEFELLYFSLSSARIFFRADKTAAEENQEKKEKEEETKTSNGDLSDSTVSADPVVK
Procedure, shortened: as §1

Compound: COc1cc(CCC(=O)Oc2ccc([N+](=O)[O-])cc2[N+](=O)[O-])cc(OC)c1OC [fragment 33, 2,4-Dinitrophenyl 3-(3,4,5-trimethoxyphenyl)propanoate]
- isoTOP-ABPP reactivity ratio at lysine Q13630_K108 [1]: 1.2
- isoTOP-ABPP reactivity ratio at lysine Q15041_K188 [2]: 1.3
- isoTOP-ABPP reactivity ratio at lysine Q2M389_K302 [3]: 0.9
